Measurements as given in PMC9655968, “Synthesis of Novel Bromophenol with Diaryl Methanes—Determination of Their Inhibition Effects on Carbonic Anhydrase and Acetylcholinesterase” (Molecules, 2022).

Columns and labels:
Format in all cases: biochemical
hCA II = hCA II (Homo sapiens, UniProt P00918); experiment: biochemical; settings: for IC50: esterase method; for Ki: from Lineweaver-Burk graphs, mean ± SD
Method: (§1) […] Both hCA isoforms were purified by using the Sepharose-4B-L-Tyrosine-sulfanilamide affinity technique. Then, the purity of these CA isoenzymes was defined via the SDS-PAGE purity technique.
(§2) In order to investigate the in vitro inhibitory mechanisms of bromophenols (13–21), kinetic studies were performed at different concentrations of bromophenols and various substrates.

hCA I = hCA I (Homo sapiens, UniProt P00915); experiment: biochemical; settings: for IC50: esterase method; for Ki: from Lineweaver-Burk graphs, mean ± SD
Chain of hCA I (P00915 whole entry): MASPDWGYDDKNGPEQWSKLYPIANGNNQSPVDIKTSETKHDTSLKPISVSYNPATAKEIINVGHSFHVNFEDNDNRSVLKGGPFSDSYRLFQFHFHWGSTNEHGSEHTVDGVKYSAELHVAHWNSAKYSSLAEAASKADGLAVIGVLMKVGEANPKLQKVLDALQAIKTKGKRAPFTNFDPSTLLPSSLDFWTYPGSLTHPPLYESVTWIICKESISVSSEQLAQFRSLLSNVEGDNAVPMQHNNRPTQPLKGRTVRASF
Method: as §1, §2

AChE = AChE (Electrophorus electricus, UniProt O42275); experiment: AChE inhibition, Ellman's method at 412 nm, acetylthiocholine iodide substrate; settings: for IC50: Ellman's method; for Ki: from Lineweaver-Burk graphs, mean ± SD
Chain of AChE (O42275 24-633): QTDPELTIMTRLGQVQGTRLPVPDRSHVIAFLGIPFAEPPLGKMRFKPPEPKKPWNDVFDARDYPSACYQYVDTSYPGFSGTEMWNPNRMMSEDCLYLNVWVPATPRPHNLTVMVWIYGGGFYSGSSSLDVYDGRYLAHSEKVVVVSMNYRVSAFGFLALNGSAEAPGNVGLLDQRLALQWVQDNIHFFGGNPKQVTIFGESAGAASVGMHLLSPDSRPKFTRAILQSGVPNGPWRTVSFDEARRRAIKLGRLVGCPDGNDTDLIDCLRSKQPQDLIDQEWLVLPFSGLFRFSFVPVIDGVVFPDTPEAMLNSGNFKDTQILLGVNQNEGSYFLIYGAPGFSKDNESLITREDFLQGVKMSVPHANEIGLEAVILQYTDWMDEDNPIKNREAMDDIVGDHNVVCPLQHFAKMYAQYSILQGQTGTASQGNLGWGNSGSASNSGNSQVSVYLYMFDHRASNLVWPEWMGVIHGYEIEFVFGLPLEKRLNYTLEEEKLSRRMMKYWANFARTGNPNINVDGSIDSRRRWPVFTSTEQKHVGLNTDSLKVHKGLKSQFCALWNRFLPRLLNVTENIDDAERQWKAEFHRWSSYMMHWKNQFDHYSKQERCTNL
Method: Acetylthiocholine iodide (AChI) was used as substrate, according to a prior study. […]
as §2

[1] = 19 and 21 compared (hydroxyl instead of methyl)

Row | Molecule | IC50 (hCA II) | Ki (hCA II) | fold greater effect on inhibition, hCA I (hCA I; 14 (methyl) compared with 16 (methoxy)) | fold difference in the inhibition value, hCA I (hCA I; compounds 14 and 19 compared) | IC50 (hCA I) | Ki (hCA I) | IC50 (AChE) | Ki (AChE) | fold decrease in the Ki value, hCA I (hCA I; 15 compared with 16 (bromo group at 4th position)) | fold increase in the inhibition value, hCA II (hCA II; [1]) | fold increase in the inhibition value, AChE (AChE; [1])
1 | 1-Bromo-4,5-dimethoxy-2-(5-methoxy-2-methylbenzyl)benzene [Compound 14] | 0.0147 µM | 0.00428 ± 0.00086 µM | 5.06 fold | 8.04 fold | 0.0198 µM | 0.00253 ± 0.00025 µM | 0.0119 µM | 0.0116 ± 0.00275 µM |  |  | 
2 | 4-Bromo-5-(2-bromo-4-hydroxybenzyl)benzene-1,2-diol [Compound 19] |  |  |  |  |  |  | 0.0204 µM | 0.0174 ± 0.00315 µM |  |  | 
3 | COc1cc(Br)c(Cc2ccc(OC)c(OC)c2OC)cc1OC [Compound 17, 1-(2-bromo-4,5dimethoxybenzyl)-2,3,4-trimethoxybenzene] | 0.0231 µM | 0.0103 ± 0.00188 µM |  |  | 0.0277 µM | 0.0188 ± 0.00497 µM |  |  |  |  | 
4 | COc1ccc(Cc2cc(OC)c(OC)cc2Br)c(Br)c1 [Compound 13, 1-Bromo-2-(2-bromo-4-methoxybenzyl)-4,5-dimethoxybenzene] | 0.021 µM | 0.00163 ± 0.00011 µM |  |  | 0.0385 µM | 0.0257 ± 0.00458 µM |  |  |  |  | 
5 | COc1ccc(OC)c(Cc2cc(OC)c(OC)cc2Br)c1 [Compound 16, 1-Bromo-2-(2,5-dimethoxybenzyl)-4,5-dimethoxybenzene] | 0.0158 µM | 0.00777 ± 0.00057 µM |  |  | 0.021 µM | 0.0128 ± 0.00052 µM |  |  |  |  | 
6 | Oc1cc(Br)c(Cc2cc(O)c(Br)cc2O)cc1O [Compound 20, 4-Bromo-5-(4-bromo-2,5-dihydroxybenzyl)benzene-1,2-diol] | 0.0141 µM | 0.00621 ± 0.00101 µM |  |  | 0.0193 µM | 0.0134 ± 0.00229 µM |  |  |  |  | 
7 | COc1cc(Cc2cc(OC)c(OC)cc2Br)c(OC)cc1Br [Compound 15, 1-Bromo-2-(4-bromo-2,5-dimethoxybenzyl)-4,5-dimethoxybenzene] | 0.0151 µM | 0.00262 ± 0.00013 µM |  |  | 0.0204 µM | 0.00935 ± 0.00188 µM |  |  | 1.37 fold |  | 
8 | Oc1ccc(O)c(Cc2cc(O)c(O)cc2Br)c1 [Compound 21, 4-Bromo-5-(2,5-dihydroxybenzyl)benzene-1,2-diol] | 0.00745 µM | 0.00497 ± 0.00059 µM |  |  | 0.0124 µM | 0.011 ± 0.00383 µM |  |  |  | 3.03 fold | 2.67 fold
9 | Oc1ccc(Cc2cc(O)c(O)cc2Br)c(Br)c1 [Compound 18, 4-Bromo-5-(2-bromo-4-hydroxybenzyl)benzene-1,2-diol] | 0.0114 µM | 0.00915 ± 0.00136 µM |  |  | 0.0154 µM | 0.0125 ± 0.00066 µM |  |  |  |  | 
